{
  "source": "PubChem BioAssay AID2082",
  "about": "(Sanford-Burnham Center for Chemical Genomics, 2009)",
  "target": "Tyrosine-protein phosphatase non-receptor type 7 (Homo sapiens) (UniProt P35236)",
  "sequence (P35236 whole entry, looked up)": "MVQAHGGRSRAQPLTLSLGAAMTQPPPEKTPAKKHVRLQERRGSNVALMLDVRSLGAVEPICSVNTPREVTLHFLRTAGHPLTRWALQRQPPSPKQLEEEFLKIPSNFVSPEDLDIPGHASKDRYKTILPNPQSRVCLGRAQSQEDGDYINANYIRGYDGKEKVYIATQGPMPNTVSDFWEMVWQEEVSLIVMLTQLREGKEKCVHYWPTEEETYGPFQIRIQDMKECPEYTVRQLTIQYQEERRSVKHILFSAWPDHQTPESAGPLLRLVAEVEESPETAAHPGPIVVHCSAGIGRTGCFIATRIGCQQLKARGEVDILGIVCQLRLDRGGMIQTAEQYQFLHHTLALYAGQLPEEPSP",
  "test": "off-target HePTP activity blockade – biochemical, DiFMUP fluorescence, selectivity assay for VHR1 inhibitor project, SAR follow-up (AID 2082)",
  "conditions": "recombinant HePTP",
  "data": [
    {"smiles": "O=C1/C(=C/c2cn(-c3ccccc3)nc2-c2ccc(OCc3ccc(Cl)cc3)cc2)SC(=S)N1CCS(=O)(=O)O", "values": [
      {"measurement": "IC50", "result": 620, "unit": "nM"}
    ]},
    {"smiles": "O=C1/C(=C/c2cn(-c3ccccc3)nc2-c2ccc(OCc3ccccc3)cc2)SC(=S)N1CCS(=O)(=O)O", "values": [
      {"measurement": "IC50", "result": 1500, "unit": "nM"}
    ]},
    {"smiles": "O=C1/C(=C/c2cn(-c3ccccc3)nc2-c2ccc(OCc3ccccc3Cl)cc2)SC(=S)N1CCS(=O)(=O)O", "values": [
      {"measurement": "IC50", "result": 1200, "unit": "nM"}
    ]},
    {"smiles": "O=C1/C(=C/c2cn(-c3ccccc3)nc2-c2ccc(S(=O)(=O)N3CCCCC3)cc2)SC(=S)N1CCS(=O)(=O)O", "values": [
      {"measurement": "IC50", "result": 2400, "unit": "nM"}
    ]},
    {"smiles": "O=C1/C(=C/c2cn(-c3ccccc3)nc2-c2ccc(OCc3ccccc3F)cc2)SC(=S)N1CCS(=O)(=O)O", "values": [
      {"measurement": "IC50", "result": 870, "unit": "nM"}
    ]}
  ]
}
